From patent US12448399B2, “Cereblon-based KRAS degrading PROTACs and uses related thereto” (Arvinas Operations, Inc., priority 2023, dated 2025)

Target: T1, KRas-G12D (Homo sapiens, UniProt P01116, G12D)
T1 construct: insert the HiBiT tag onto the N-terminus of one or more of the endogenous KRas alleles; host or cells: AsPC-1 HiBiT-KRasG12D knock-in clone (one tagged allele, two untagged KRasG12D alleles)
Experiment: HiBiT Degradation Assay (G12D), AsPC-1 HiBiT-KRasG12D cells, 24 hr
Format: cell-based
Details: for DC50: AsPC-1 cells; for Dmax: ASPC1, AsPC-1 cells, maximum degradation observed
Experimental: AsPC-1 (CRL-1682) cells were purchased from ATCC and are homozygous for the G12D mutation in KRas. AsPC-1 cells were cultured in GIBCO RPMI-1640 (ThermoFisher Scientific, catalog #61870-036, with Glutamax, no HEPES, no Na Pyruvate) supplemented with 10% FBS (ThermoFisher Scientific, catalog #2060357) and 1× Penicillin-Streptomycin (ThermoFisher Scientific, catalog #15140122, 10000 U/ml, 100×). For degradation assays, 384 well plates were used. Alamar blue was purchased from ThermoFisher Scientific (A50101) and used according to manufacturer instructions. The Nano-Glo® HiBiT Lytic Detection System and Nano-Glo® HiBiT Blotting System were purchased from Promega (#N3050 and #N2410) and used according to manufacturer instructions.
To create the AsPC-1 HiBiT-KRasG12D cell line, CRISPR-Cas9 was used to insert the HiBiT tag onto the N-terminus of one or more of the endogenous KRas alleles. See Schwinn, M. K. et al. (2018) CRISPR-mediated tagging of endogenous proteins with a luminescent peptide, ACS Chem. Biol. 13(2), 467-474. After knock-in of the tag, individual clones were isolated by single cell dilution and screened for HiBiT insertion by PCR. A clone was identified that contained the desired HiBiT-KRasG12D sequence at one allele while the remaining two KRasG12D alleles were untagged. This clone was used in further studies.
AsPC-1 HiBiT-KRasG12D cells were plated at 9000 or 15,000 cells/well in a 384 well plate (Corning #3770). Compounds of the present disclosure and positive controls were diluted in the appropriate cell media and applied to the plated cells resulting in a final concentration titration of 10 μM to […] in 0.5% DMSO. Gambogic acid was used as a positive control for cytotoxicity and titrated from 10 μM to 78 nM. All assays were performed in triplicate. Cells were treated with compounds for 24 hr at 37° C. in an incubator containing 5% CO2. Following treatment, alamar blue was used to determine if any compounds led to a loss in cell viability after 24 hr. The 10× alamar blue reagent was added to a final concentration of 1× as recommended by the manufacturer and cells were returned to the incubator for 4 hr. Plates were then allowed to equilibrate to RT and fluorescence was measured using a Perkin-Elmer EnVision. After completion of the fluorescence read, the liquid from each well was removed and the cells were washed with PBS. The Nano-Glo® HiBiT detection reagent was prepared according to the manufacturer's instructions and added to each well after the PBS wash was removed. Following incubation at room temperature for 45 min, the luminescence was read using the ultra-sensitive luminescence aperture on the Envision instrument.
Fluorescence values from the alamar blue treatment were normalized to the DMSO-only control for each compound titration. HiBiT luminescence was normalized to the DMSO-only control and the fractional HiBiT signal was plotted versus the log of the PROTAC concentration and fit to a 4-parameter dose-response model to obtain the concentration of the compound that leads to half maximal degradation (DC50) as well as the maximum degradation observed (Dmax, conventionally expressed as a percentage of control).

T1 sequence (P01116 1-188 isoform P01116-2 G12D): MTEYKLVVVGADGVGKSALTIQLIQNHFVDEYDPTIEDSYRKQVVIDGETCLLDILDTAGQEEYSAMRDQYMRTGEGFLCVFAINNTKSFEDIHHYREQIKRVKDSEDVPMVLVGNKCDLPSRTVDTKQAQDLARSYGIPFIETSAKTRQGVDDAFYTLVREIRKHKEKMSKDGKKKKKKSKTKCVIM

SMILES	DC50 [nM]	Dmax [%]
CCc1cccc2cc(O)cc(-c3ncc4c(N5CC6CCC(C5)N6)nc(OCCN5CCC(CN6CCN(c7ccc8c(c7)C(=O)N(C7CCC(=O)NC7=O)C8=O)CC6)CC5)nc4c3F)c12 (centres unmarked) [Compound 32]	250 to 1000	–
CCc1cccc2cc(O)cc(-c3ncc4c(N5CC6CCC(C5)N6)nc(OCCN5CCN([C@H]6CC[C@H](Nc7ccc8c(c7)C(=O)N(C7CCC(=O)NC7=O)C8=O)CC6)CC5)nc4c3F)c12 (some centres unmarked) [Compound 33]	250 to 1000	–
CCc1cccc2cc(O)cc(-c3ncc4c(N5CC6CCC(C5)N6)nc(OCCN5CCC(c6ccc7c(c6)C(=O)N(C6CCC(=O)NC6=O)C7=O)CC5)nc4c3F)c12 (centres unmarked) [Compound 34]	250 to 1000	–
C#Cc1c(F)ccc2cc(O)cc(-c3ncc4c(N5CC6CCC(C5)N6)nc(OCCN5CCC(CC6CCN(c7cccc8c7CN(C7CCC(=O)NC7=O)C8=O)CC6)CC5)nc4c3F)c12 (centres unmarked) [Compound 35, 3-[4-[4-[[1-[2-[4-(3,8-diazabicyclo[3.2.1]octan-3-yl)-7-(8-ethynyl-7-fluoro-3-hydroxy-1-naphthyl)-8-fluoro-pyrido[4,3-d]pyrimidin-2-yl]oxyethyl]-4-piperidyl]methyl]-1-piperidyl]-1-oxo-isoindolin-2-yl]piperidine-2,6-dione]	100 to 5250	> 70
CCc1cccc2cc(O)cc(-c3ncc4c(N5CC6CCC(C5)N6)nc(OCCN5CCN(c6ccc7c(c6)CN(C6CCC(=O)NC6=O)C7=O)CC5)nc4c3F)c12 (centres unmarked) [Compound 39]	250 to 1000	≤ 25
CCc1cccc2cc(O)cc(-c3ncc4c(N5CC6CCC(C5)N6)nc(OCCN5CCN(c6ccc7c(c6)C(=O)N(C6CCC(=O)NC6=O)C7=O)CC5)nc4c3F)c12 (centres unmarked) [Compound 40]	> 1000	≤ 25
C#Cc1c(F)ccc2cc(O)cc(-c3ncc4c(N5CC6CCC(C5)N6)nc(OCCN5CCC(CC6CCN(CC7CCN(c8cccc9c8CN(C8CCC(=O)NC8=O)C9=O)CC7)CC6)CC5)nc4c3F)c12 (centres unmarked) [Compound 43, 3-[4-[4-[[4-[[1-[2-[4-(3,8-diazabicyclo[3.2.1]octan-3-yl)-7-(8-ethynyl-7-fluoro-3-hydroxy-1-naphthyl)-8-fluoro-pyrido[4,3-d]pyrimidin-2-yl]oxyethyl]-4-piperidyl]methyl]-1-piperidyl]methyl]-1-piperidyl]-1-oxo-isoindolin-2-yl] piperidine-2,6-dione]	< 5100	> 70
CCc1cccc2cc(O)cc(-c3ncc4c(N5CC6CCC(C5)N6C)nc(OC[C@@]56CCCN5[C@H](COC(=O)N5CCN(c7ccc8c(c7)CN(C7CCC(=O)NC7=O)C8=O)CC5)CC6)nc4c3F)c12 (stereo partly drawn) [Compound 47, [(3S,8S)-8-[[7-(8-ethyl-3-hydroxy-1-naphthyl)-8-fluoro-4-(8-methyl-3,8-diazabicyclo[3.2.1]octan-3-yl)pyrido[4,3-d]pyrimidin-2-yl]oxymethyl]-1,2,3,5,6,7-hexahydropyrrolizin-3-yl]methyl4-[2-(2,6-dioxo-3-piperidyl)-1-oxo-isoindolin-5-yl]piperazine-1-carboxylate]	250 to 1000	≤ 25
CCc1cccc2cc(O)cc(-c3ncc4c(N5CC6CCC(C5)N6)nc(OC[C@@]56CCCN5[C@H](COC(=O)N5CCN(c7ccc8c(c7)CN(C7CCC(=O)N(C)C7=O)C8=O)CC5)CC6)nc4c3F)c12 (stereo partly drawn) [Compound 50, [(3S,8S)-8-[[4-(3,8-diazabicyclo[3.2.1]octan-3-yl)-7-(8-ethyl-3-hydroxy-1-naphthyl)-8-fluoro-pyrido[4,3-d]pyrimidin-2-yl]oxymethyl]-1,2,3,5,6,7-hexahydropyrrolizin-3-yl]methyl4-[2-(1-methyl-2,6-dioxo-3-piperidyl)-1-oxo-isoindolin-5-yl]piperazine-1-carboxylate]	< 5100	≤ 25
CCc1cccc2cc(O)cc(-c3ncc4c(N5CC6CCC(C5)N6)nc(OC[C@@]56CCCN5[C@H](COC(=O)N5CCN(c7cccc8c7CN(C7CCC(=O)N(C)C7=O)C8=O)CC5)CC6)nc4c3F)c12 (stereo partly drawn) [Compound 52, [(3S,8S)-8-[[4-(3,8-diazabicyclo[3.2.1]octan-3-yl)-7-(8-ethyl-3-hydroxy-1-naphthyl)-8-fluoro-pyrido[4,3-d]pyrimidin-2-yl]oxymethyl]-1,2,3,5,6,7-hexahydropyrrolizin-3-yl]methyl 4-[2-(1-methyl-2,6-dioxo-3-piperidyl)-1-oxo-isoindolin-4-yl]piperazine-1-carboxylate]	250 to 1000	≤ 25

More lines, main results first:

DC50 [nM]	SMILES	Dmax [%]
> 1000	CCc1cccc2cc(O)cc(-c3ncc4c(N5CC6CCC(C5)N6)nc(OCCN5CCN(c6ccc(C(=O)NC7CCC(=O)NC7=O)c(F)c6)CC5)nc4c3F)c12 (centres unmarked) [Compound 37]	–
100 to 5250	CCc1cccc2cc(O)cc(-c3ncc4c(N5CC6CCC(C5)N6)nc(OCCN5CCC(c6ccc7c(c6)CN(C6CCC(=O)NC6=O)C7=O)CC5)nc4c3F)c12 (centres unmarked) [Compound 38]	–
> 1000	CCc1cccc2cc(O)cc(-c3ncc4c(N5CC6CCC(C5)N6C)nc(OCCN5CCC(CC6CCN(CC7CCN(c8cccc9c8CN(C8CCC(=O)NC8=O)C9=O)CC7)CC6)CC5)nc4c3F)c12 (centres unmarked) [Compound 42, 3-[4-[4-[[4-[[1-[2-[7-(8-ethyl-3-hydroxy-1-naphthyl)-8-fluoro-4-(8-methyl-3,8-diazabicyclo[3.2.1]octan-3-yl)pyrido[4,3-d]pyrimidin-2-yl]oxyethyl]-4-piperidyl]methyl]-1-piperidyl]methyl]-1-piperidyl]-1-oxo-isoindolin-2-yl] piperidine-2,6-dione]	–
> 1000	CCc1cccc2cc(O)cc(-c3nc(N4CC5CCC(C4)N5)c4cnc(OCCN5CCC(CC6CCN(CC7CCN(c8cccc9c8CN(C8(C)CCC(=O)NC8=O)C9=O)CC7)CC6)CC5)nc4c3F)c12 (centres unmarked) [Compound 44]	–
250 to 1000	CCc1cccc2cc(O)cc(-c3ncc4c(N5CC6CCC(C5)N6)nc(OCCN5CCC(CC6CCN(c7cccc8c7CN(C7CCC(=O)N(C)C7=O)C8=O)CC6)CC5)nc4c3F)c12 (centres unmarked) [Compound 45]	–
> 1000	CCc1cccc2cc(O)cc(-c3ncc4c(N5CC6CCC(C5)N6)nc(OCCN5CCC(CC6CCN(CC7CCN(c8cccc9c8CN(C8CCC(=O)N(C)C8=O)C9=O)CC7)CC6)CC5)nc4c3F)c12 (centres unmarked) [Compound 46]	–
> 1000	CCc1cccc2cc(O)cc(-c3ncc4c(N5CC6CCC(C5)N6C)nc(OC[C@]56CCCN5[C@@H](COC(=O)N5CCN(c7ccc8c(c7)CN(C7CCC(=O)NC7=O)C8=O)CC5)CC6)nc4c3F)c12 (stereo partly drawn) [Compound 48, [(3R,8R)-8-[[7-(8-ethyl-3-hydroxy-1-naphthyl)-8-fluoro-4-(8-methyl-3,8-diazabicyclo[3.2.1]octan-3-yl)pyrido[4,3-d]pyrimidin-2-yl]oxymethyl]-1,2,3,5,6,7-hexahydropyrrolizin-3-yl]methyl4-[2-(2,6-dioxo-3-piperidyl)-1-oxo-isoindolin-5-yl]piperazine-1-carboxylate]	–
> 1000	CCc1cccc2cc(O)cc(-c3ncc4c(N5CC6CCC(C5)N6C)nc(OC[C@@]56CCCN5[C@H](COC(=O)N5CCN(c7cccc8c7CN(C7CCC(=O)NC7=O)C8=O)CC5)CC6)nc4c3F)c12 (stereo partly drawn) [Compound 49, [(3S,8S)-8-[[7-(8-ethyl-3-hydroxy-1-naphthyl)-8-fluoro-4-(8-methyl-3,8-diazabicyclo[3.2.1]octan-3-yl)pyrido[4,3-d]pyrimidin-2-yl]oxymethyl]-1,2,3,5,6,7-hexahydropyrrolizin-3-yl]methyl 4-[2-(2,6-dioxo-3-piperidyl)-1-oxo-isoindolin-4-yl]piperazine-1-carboxylate]	–
> 1000	CCc1cccc2cc(O)cc(-c3ncc4c(N5CC6CCC(C5)N6C)nc(OC[C@]56CCCN5[C@@H](COC(=O)N5CCN(c7cccc8c7CN(C7CCC(=O)NC7=O)C8=O)CC5)CC6)nc4c3F)c12 (stereo partly drawn) [Compound 51, [(3R,8R)-8-[[7-(8-ethyl-3-hydroxy-1-naphthyl)-8-fluoro-4-(8-methyl-3,8-diazabicyclo[3.2.1]octan-3-yl)pyrido[4,3-d]pyrimidin-2-yl]oxymethyl]-1,2,3,5,6,7-hexahydropyrrolizin-3-yl]methyl4-[2-(2,6-dioxo-3-piperidyl)-1-oxo-isoindolin-4-yl]piperazine-1-carboxylate]	–
